The results in this text go back to ChEMBL document CHEMBL1201862, “PubChem BioAssay data set” (2004).

Test [1] has as its target T1, DNA dC->dU-editing enzyme APOBEC-3A (Homo sapiens, UniProt P31941). As to the kind of experiment: Dose Response confirmation of small molecule APOBEC3A DNA Deaminase Inhibitors via a fluorescence-based single-stranded DNA deaminase assay. [Related pubchem assays (depositor defined):AID493011, AID493024]. Type of test: functional.
Test [2] has as its target T2, DNA dC->dU-editing enzyme APOBEC-3G (Homo sapiens, UniProt Q9HC16). Type of test: functional.
Test [3] has as its target Beta-lactamase (Pseudomonas aeruginosa, UniProt Q79MP6).
Test [4] concerns the target T1, DNA dC->dU-editing enzyme APOBEC-3A. In words: SAR analysis of small molecule inhibitors of APOBEC3A DNA Deaminase via a fluorescence-based single-stranded DNA deaminase assay. Format: functional. Particulars: read-out: IC50_Mean.
Test [5] deals with Beta-lactamase (Salmonella choleraesuis (strain SC-B67), UniProt Q5J463).
For test [6], the target named is T1, DNA dC->dU-editing enzyme APOBEC-3A. As to the kind of experiment: SAR analysis of small molecule inhibitors of APOBEC3A DNA Deaminase via a fluorescence-based single-stranded DNA deaminase assay - Set 2. Type of test: functional. Conditions: read-out: IC50_Mean.
For test [7], the target named is FAD-linked sulfhydryl oxidase ALR (Homo sapiens, UniProt P55789). As to the kind of experiment: ALR-catalysed DTT oxidation blockers – biochemical, H2O2 detection, luminescence, cherry-pick, dose response (AID 493248).
Test [8] can be described thus: luciferase reporter signal suppression in cells – H4 neuroglioma cells, luminescence, dose response (AID 1990). Format: functional, cell-based.
Test [9] in a line: alpha-synuclein stem-loop luciferase translation blockers – H4 neuroglioma cells, luminescence, confirmation (AID 1988). Type of test: functional, cell-based.
Test [10] addresses T2, DNA dC->dU-editing enzyme APOBEC-3G. As to the kind of experiment: SAR analysis of small molecule inhibitors of APOBEC3G DNA Deaminase via a fluorescence-based single-stranded DNA deaminase assay - Set 2. Type of test: functional. Conditions: read-out: IC50_Mean.
Test [11] in a line: Trypanosoma cruzi growth suppression in host cells – NIH3T3 host cells, beta-gal luminescence, confirmation (AID 2044).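 Note: intracellular parasites grown in NIH/3T3 mouse fibroblasts as host cells; luminescent beta-galactosidase reporter signal from transgenic T. cruzi replicating inside host cells; inhibitors lower the luminescence signal.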 Format: functional, cell-based.
Test [12] deals with T2, DNA dC->dU-editing enzyme APOBEC-3G. In words: inhibition of APOBEC3G ssDNA deamination – biochemical, fluorescence, single-stranded DNA substrate, SAR follow-up (AID 602136). Conditions: read-out: IC50_Mean. Type of test: functional.
Test [13] can be described thus: NIH3T3 cell viability loss – ATP luminescence, mouse fibroblasts, counter-screen, dose response (AID 2010).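 Note: cells exposed to compound for about 90 hours before reading.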 Type of test: functional, cell-based.
In another test the test system is INS1. As to the kind of experiment: INS-1E survival protection against cytokine death – cell-based, luminescence, retest, dose response (AID 449756).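 Note: cell death triggered by IL-1 beta plus TNF-alpha plus IFN-gamma mixture; protective hits raise ATP signal compared with cytokine alone wells.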 Type of test: functional. Conditions: Rattus norvegicus.
Test [14] in a line: Luminescence Cell-Based Dose Response HTS to Identify Inhibitors of 5'UTR Stem-Loop Driven Prion Protein mRNA Translation in H4 Neuroglioblastoma Cells. [Related pubchem assays: 1827 (Project Summary), 1813 (Primary HTS)]. Type of test: functional.
Another test deals with Cytochrome P450 2C9 (Homo sapiens, UniProt P11712).
Another test concerns the target Cytochrome P450 2C19 (Homo sapiens, UniProt P33261). As to the kind of experiment: Cytochrome panel assay with activity outcomes. Panel member name: p450-cyp2c19 Compounds with AC50 equal or less than 10 uM are considered active. Particulars: read-out: AC50. Type of test: functional.
The target in test [15] is T3, Glycogen synthase kinase-3 beta (Homo sapiens, UniProt P49841). As to the kind of experiment: inhibition of human GSK3B activity – biochemical, microfluidics, dry powder samples, set 2, dose response (AID 623989). Type of test: functional.
Test [16] has as its target T4, Glycogen synthase kinase-3 alpha (Homo sapiens, UniProt P49840). In words: GSK3A enzyme blockers, homolog specificity check – biochemical, microfluidics, dry powder samples, set 2, selectivity assay for GSK3beta inhibitor project, dose response (AID 623978). Type of test: functional.
Test [17] has as its target Tyrosine-protein kinase ABL1 (Homo sapiens, UniProt P00519). Type of test: functional.
The target in test [18] is Tyrosine-protein kinase BTK (Homo sapiens, UniProt Q06187). Type of test: functional.
In test [19] the target is BDNF/NT-3 growth factors receptor (Homo sapiens, UniProt Q16620). Type of test: functional.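 Note: NTRK2 measured as one member of a broad kinome-wide kinase profiling panel.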
Test [20] concerns the target T3, Glycogen synthase kinase-3 beta. Type of test: functional.
Test [21] deals with Ribosomal protein S6 kinase alpha-3 (Homo sapiens, UniProt P51812). Type of test: functional.
The target in test [22] is Serine/threonine-protein kinase D3 (Homo sapiens, UniProt O94806). Format: functional.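 Note: determined within a kinase panel screen, with PRKCN as the panel member.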
For test [23], the target named is ALK tyrosine kinase receptor (Homo sapiens, UniProt Q9UM73). Format: functional.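 Note: ALK tested as one member of a kinase panel screen.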
Test [24] concerns the target Tyrosine-protein kinase Fyn (Homo sapiens, UniProt P06241). Format: functional.
For test [25], the target named is Vascular endothelial growth factor receptor 1 (Homo sapiens, UniProt P17948). Format: functional.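 Note: measured within a kinome-wide profiling panel, FLT1 as the panel member.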
Test [26] has as its target Inhibitor of nuclear factor kappa-B kinase subunit epsilon (Homo sapiens, UniProt Q14164). As to the kind of experiment: Navigating the Kinome. Panel member name: IKBKE. Format: functional.
The target in test [27] is Mitogen-activated protein kinase 9 (Homo sapiens, UniProt P45984). Format: functional.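 Note: value from a kinome panel profiling assay, MAPK9 panel entry.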
The target in test [28] is Mast/stem cell growth factor receptor Kit (Homo sapiens, UniProt P10721). Format: functional.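 Note: KIT entry within a kinase panel assay.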
The target in test [29] is Mitogen-activated protein kinase 14 (Homo sapiens, UniProt Q16539). Type of test: functional.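 Note: part of a kinome-wide panel, MAPK14 entry.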
The target of test [30] is Serine/threonine-protein kinase pim-1 (Homo sapiens, UniProt P11309). Format: functional.
The target of test [31] is Cyclin-dependent kinase 8 (Homo sapiens, UniProt P49336). In words: Navigating the Kinome. Panel member name: CDK8. Format: functional.
Test [32] deals with Mitogen-activated protein kinase kinase kinase kinase 5 (Homo sapiens, UniProt Q9Y4K4). Format: functional.
Test [33] deals with G protein-coupled receptor kinase 5 (Homo sapiens, UniProt P34947). In words: Navigating the Kinome. Panel member name: GPRK5. Format: functional.
The target in test [34] is Mitogen-activated protein kinase kinase kinase kinase 4 (Homo sapiens, UniProt O95819). Type of test: functional.
Test [35] deals with Dual specificity protein kinase CLK2 (Homo sapiens, UniProt P49760). Format: functional.
Another test deals with Focal adhesion kinase 1 (Homo sapiens, UniProt Q05397). Format: functional.
Test [36] concerns the target Mitogen-activated protein kinase 8 (Homo sapiens, UniProt P45983). Type of test: functional.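 Note: value comes from one member of a kinome-wide kinase profiling panel.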
The target of test [37] is Casein kinase I isoform alpha (Homo sapiens, UniProt P48729). Format: functional.
Test [38] deals with Serine/threonine-protein kinase TAO1 (Homo sapiens, UniProt Q7L7X3). Type of test: functional.
Test [39] addresses Macrophage-stimulating protein receptor (Homo sapiens, UniProt Q04912). As to the kind of experiment: Navigating the Kinome. Panel member name: MST1R. Type of test: functional.
Test [40] deals with Death-associated protein kinase 3 (Homo sapiens, UniProt O43293). Format: functional.
Test [41] concerns the target Tyrosine-protein kinase JAK3 (Homo sapiens, UniProt P52333). Type of test: functional.
Test [42] deals with Calcium/calmodulin-dependent protein kinase type II subunit alpha (Homo sapiens, UniProt Q9UQM7). In words: Navigating the Kinome. Panel member name: CAMK2A. Type of test: functional.
Test [43] has as its target Serine/threonine-protein kinase N2 (Homo sapiens, UniProt Q16513). Format: functional.
In test [44] the target is T4, Glycogen synthase kinase-3 alpha. Format: functional.
For test [45], the target named is Fibroblast growth factor receptor 1 (Homo sapiens, UniProt P11362). Format: functional.
Test [46] addresses Tyrosine-protein kinase Lck (Homo sapiens, UniProt P06239). Format: functional.
The target in the next test is Activated CDC42 kinase 1 (Homo sapiens, UniProt Q07912). In words: Navigating the Kinome. Panel member name: ACK1. Type of test: functional.
Test [47] has as its target cAMP-dependent protein kinase catalytic subunit alpha (Homo sapiens, UniProt P17612). Format: functional.
Test [48] has as its target Homeodomain-interacting protein kinase 2 (Homo sapiens, UniProt Q9H2X6). Format: functional.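 Note: measured within a kinome-wide kinase profiling panel, HIPK2 being one panel member.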
For test [49], the target named is Dual specificity protein kinase CLK4 (Homo sapiens, UniProt Q9HAZ1). Type of test: functional.
The target in test [50] is Cell division cycle 7-related protein kinase (Homo sapiens, UniProt O00311). Type of test: functional.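 Note: value obtained from a kinome-wide kinase panel.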
For test [51], the target named is Interleukin-1 receptor-associated kinase 4 (Homo sapiens, UniProt Q9NWZ3). Type of test: functional.
Test [52] concerns the target T5, Neuropeptides B/W receptor type 1 (Homo sapiens, UniProt P48145).
T5 sequence (P48145 whole entry): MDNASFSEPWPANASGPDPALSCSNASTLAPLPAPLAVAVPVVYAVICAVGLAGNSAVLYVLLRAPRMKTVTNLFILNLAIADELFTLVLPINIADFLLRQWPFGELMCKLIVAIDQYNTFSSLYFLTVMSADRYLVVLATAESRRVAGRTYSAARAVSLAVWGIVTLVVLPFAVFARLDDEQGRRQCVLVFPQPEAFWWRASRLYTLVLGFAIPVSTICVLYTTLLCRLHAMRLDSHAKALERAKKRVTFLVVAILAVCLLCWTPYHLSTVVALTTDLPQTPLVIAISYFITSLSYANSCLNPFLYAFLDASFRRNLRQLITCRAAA
As to the kind of experiment: human NPBW1 receptor blockade, IC50 – cell-based, fluorescence, dose response, set 5, late-stage follow-up (AID 588566). Format: functional.

Test [53] concerns the target Melanin-concentrating hormone receptor 1 (Homo sapiens, UniProt Q99705). As to the kind of experiment: Late-stage fluorescence-based counterscreen for antagonists of the G-protein coupled receptor 7 (GPR7): cell-based dose response assay to identify antagonists of the melanin-concentrating hormone receptor 1 (MCHR1) Set 5. Type of test: functional.

Several values for one entry are separate records, joined by “and”; a condition that tells them apart may be missing. Identical values can stand only once. Activity calls are given as the source filed them. Bounds are passed on as bounds.

T3 sequence (P49841 whole entry): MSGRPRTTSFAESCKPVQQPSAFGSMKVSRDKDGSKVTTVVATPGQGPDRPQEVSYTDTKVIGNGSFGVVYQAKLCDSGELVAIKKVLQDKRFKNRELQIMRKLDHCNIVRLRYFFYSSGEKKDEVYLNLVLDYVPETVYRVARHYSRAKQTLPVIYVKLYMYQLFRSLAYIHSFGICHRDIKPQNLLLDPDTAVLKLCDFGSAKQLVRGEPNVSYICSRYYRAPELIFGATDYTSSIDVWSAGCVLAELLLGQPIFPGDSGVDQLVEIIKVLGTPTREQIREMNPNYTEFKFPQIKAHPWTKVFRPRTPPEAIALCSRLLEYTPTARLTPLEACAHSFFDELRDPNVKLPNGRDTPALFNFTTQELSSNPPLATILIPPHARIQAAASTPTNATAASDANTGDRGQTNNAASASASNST
T1 sequence (P31941 whole entry): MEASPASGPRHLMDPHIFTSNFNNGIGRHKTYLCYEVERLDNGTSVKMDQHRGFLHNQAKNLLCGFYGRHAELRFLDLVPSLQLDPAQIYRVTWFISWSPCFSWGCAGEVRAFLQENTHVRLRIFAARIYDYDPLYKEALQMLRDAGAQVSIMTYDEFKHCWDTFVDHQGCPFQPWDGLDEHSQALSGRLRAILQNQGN
T2 sequence (Q9HC16 whole entry): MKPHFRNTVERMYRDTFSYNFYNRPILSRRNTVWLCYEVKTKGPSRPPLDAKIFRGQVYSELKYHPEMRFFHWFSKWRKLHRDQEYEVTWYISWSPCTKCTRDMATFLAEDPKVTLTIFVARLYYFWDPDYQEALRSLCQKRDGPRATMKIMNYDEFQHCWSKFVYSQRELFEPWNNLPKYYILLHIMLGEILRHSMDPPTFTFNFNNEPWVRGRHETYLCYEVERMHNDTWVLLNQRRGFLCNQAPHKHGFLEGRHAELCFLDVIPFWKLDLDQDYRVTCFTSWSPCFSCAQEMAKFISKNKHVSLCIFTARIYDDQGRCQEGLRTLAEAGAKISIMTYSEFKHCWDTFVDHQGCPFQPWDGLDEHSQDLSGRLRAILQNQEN
Chain of Focal adhesion kinase 1 (Q05397 whole entry): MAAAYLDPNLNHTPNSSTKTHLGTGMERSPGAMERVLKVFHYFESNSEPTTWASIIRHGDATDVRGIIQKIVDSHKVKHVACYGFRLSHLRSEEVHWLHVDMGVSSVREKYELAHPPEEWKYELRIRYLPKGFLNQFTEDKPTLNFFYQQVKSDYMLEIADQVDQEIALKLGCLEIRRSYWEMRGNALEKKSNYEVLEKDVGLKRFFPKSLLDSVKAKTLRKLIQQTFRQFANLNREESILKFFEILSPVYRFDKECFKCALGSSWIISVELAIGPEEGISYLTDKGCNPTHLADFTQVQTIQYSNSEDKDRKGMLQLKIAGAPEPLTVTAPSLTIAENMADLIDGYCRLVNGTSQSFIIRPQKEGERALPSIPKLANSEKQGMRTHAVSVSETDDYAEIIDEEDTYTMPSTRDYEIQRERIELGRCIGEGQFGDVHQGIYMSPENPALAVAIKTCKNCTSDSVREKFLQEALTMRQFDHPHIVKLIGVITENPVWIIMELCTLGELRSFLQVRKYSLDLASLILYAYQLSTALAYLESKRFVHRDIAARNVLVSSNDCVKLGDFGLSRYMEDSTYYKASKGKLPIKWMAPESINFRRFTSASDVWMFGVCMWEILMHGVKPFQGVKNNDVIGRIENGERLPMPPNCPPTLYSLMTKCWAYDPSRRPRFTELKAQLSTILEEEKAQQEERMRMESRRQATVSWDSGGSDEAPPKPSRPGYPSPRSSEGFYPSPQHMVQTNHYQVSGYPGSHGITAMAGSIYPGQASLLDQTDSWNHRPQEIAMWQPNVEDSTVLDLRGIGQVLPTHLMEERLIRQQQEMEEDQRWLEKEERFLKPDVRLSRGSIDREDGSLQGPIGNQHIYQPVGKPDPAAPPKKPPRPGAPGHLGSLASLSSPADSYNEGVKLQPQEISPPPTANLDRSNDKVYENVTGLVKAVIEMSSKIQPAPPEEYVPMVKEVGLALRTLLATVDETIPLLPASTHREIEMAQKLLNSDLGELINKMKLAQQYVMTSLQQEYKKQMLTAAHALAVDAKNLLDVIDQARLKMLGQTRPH
Chain of Serine/threonine-protein kinase pim-1 (P11309 whole entry): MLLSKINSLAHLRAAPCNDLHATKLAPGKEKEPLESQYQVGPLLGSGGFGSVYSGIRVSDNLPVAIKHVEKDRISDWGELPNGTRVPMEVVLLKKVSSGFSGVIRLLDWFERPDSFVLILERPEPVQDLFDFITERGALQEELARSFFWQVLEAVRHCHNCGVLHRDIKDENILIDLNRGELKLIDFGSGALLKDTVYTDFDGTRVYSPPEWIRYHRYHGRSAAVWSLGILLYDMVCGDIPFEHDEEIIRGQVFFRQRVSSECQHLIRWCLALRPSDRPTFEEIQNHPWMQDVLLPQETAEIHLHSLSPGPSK
Chain of Mitogen-activated protein kinase 14 (Q16539 whole entry): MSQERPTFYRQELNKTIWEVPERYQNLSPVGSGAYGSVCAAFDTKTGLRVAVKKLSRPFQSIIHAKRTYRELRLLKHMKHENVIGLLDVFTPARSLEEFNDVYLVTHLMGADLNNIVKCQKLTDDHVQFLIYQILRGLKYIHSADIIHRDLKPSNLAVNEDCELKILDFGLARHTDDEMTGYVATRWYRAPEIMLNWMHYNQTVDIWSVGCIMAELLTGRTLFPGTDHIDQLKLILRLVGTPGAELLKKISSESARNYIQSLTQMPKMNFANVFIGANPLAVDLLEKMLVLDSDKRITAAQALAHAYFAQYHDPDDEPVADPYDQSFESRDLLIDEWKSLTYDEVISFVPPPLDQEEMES
T4 sequence (P49840 whole entry): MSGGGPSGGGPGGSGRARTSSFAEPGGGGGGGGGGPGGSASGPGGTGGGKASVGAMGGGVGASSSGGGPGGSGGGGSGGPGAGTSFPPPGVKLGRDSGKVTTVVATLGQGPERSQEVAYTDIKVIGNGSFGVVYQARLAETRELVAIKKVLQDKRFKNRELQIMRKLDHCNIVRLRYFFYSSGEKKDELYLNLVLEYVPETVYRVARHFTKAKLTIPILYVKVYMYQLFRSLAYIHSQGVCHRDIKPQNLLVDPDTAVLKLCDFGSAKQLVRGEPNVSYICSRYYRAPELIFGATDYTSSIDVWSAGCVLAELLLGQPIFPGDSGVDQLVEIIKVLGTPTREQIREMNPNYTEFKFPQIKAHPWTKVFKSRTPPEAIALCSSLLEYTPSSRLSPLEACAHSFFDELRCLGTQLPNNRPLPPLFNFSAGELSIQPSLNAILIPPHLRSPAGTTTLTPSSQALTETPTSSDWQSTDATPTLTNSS
Chain of Mitogen-activated protein kinase kinase kinase kinase 4 (O95819 whole entry): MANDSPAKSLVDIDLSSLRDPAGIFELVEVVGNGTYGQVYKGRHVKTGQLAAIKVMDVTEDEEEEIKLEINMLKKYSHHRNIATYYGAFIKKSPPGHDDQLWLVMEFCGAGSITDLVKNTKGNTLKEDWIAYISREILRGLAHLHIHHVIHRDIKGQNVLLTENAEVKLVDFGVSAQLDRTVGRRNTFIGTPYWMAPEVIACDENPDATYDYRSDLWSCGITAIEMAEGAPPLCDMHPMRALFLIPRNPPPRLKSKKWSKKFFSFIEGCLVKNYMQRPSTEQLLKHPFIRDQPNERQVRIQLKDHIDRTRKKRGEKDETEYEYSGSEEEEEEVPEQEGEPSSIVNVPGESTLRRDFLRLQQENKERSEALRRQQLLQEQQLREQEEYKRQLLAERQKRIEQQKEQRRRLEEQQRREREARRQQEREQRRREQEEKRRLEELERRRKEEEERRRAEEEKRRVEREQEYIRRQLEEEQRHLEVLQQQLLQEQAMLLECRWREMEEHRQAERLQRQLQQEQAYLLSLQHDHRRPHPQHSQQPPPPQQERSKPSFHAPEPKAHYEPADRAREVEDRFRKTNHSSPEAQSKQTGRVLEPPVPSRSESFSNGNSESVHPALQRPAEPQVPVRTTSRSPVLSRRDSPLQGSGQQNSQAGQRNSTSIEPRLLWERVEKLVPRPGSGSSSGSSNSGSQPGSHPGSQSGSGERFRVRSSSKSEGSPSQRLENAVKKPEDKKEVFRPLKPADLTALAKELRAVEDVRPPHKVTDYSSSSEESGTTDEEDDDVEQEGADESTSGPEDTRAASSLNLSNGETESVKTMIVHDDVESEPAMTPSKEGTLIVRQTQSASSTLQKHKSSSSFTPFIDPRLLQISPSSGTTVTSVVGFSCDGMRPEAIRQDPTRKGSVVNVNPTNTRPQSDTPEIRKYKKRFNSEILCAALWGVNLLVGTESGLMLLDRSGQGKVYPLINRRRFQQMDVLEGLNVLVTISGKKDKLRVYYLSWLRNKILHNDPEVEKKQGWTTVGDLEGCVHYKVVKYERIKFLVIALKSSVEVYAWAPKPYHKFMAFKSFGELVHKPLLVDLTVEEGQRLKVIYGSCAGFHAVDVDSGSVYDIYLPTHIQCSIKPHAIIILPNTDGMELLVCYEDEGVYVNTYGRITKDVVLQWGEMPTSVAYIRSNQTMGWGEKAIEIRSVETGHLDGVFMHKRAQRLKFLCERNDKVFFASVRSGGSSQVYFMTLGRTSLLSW
Chain of Interleukin-1 receptor-associated kinase 4 (Q9NWZ3 whole entry): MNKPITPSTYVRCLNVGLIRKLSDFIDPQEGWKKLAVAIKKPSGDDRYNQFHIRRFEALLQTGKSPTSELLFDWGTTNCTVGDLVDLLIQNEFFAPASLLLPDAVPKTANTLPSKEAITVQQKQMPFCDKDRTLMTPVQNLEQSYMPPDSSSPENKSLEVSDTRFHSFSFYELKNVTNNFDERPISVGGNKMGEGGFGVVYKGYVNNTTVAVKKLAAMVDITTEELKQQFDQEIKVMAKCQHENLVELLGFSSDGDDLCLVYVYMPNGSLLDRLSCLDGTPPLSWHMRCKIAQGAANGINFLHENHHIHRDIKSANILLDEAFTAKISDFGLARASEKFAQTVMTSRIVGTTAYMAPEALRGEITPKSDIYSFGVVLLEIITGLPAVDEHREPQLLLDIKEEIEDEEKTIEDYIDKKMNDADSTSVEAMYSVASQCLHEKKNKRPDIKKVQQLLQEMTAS

With `Cc1ccc2[nH]cc(/C=C/c3cc[n+](C)cc3)c2c1`, the IC50 was 3.49 µM (active) in test [1]; > 100 µM (inactive) in [2]; > 59.6 µM (inactive) on Beta-lactamase [3]; > 99 µM (inactive) in test [4]; 49.2 µM (inactive) at Beta-lactamase [5]; > 99 µM (inactive) in [6]. In addition, the IC50 in [10] and in test [12] was > 99 µM (inactive) in each case. Moreover, the AC50 in test [7] is 1.49 µM (active); in the test on INS1 it was 4.88 µM (active). Further, the EC50 was 9.85 µM (active) in test [8]; 12.2 µM (active) in test [9]; 1.43 µM (active) in test [11]; > 60 µM (not active) in test [13]; 13.6 µM (active) in test [14].

Regarding `COC(=O)C(C)Sc1ccc2nnc(-c3ccc(F)cc3)n2n1` (stereo unspecified), the AC50 at Cytochrome P450 2C9 is 3.55 µM (inconclusive); at Cytochrome P450 2C19, 39.8 µM (inconclusive); in test [15], 1.24 µM (active); in test [16] it was 5.24 µM (active).

As for `CC(C)C(CO)NC(=O)c1cccc(-n2nc(C(C)(C)C)cc2NC(=O)Nc2cccc3ccccc23)c1` (stereo unspecified), the Ki is > 3.98 µM (inactive) in test [17]; > 6.31 µM (inactive) in test [18]; > 3.98 µM (inactive) in [19]; > 3.98 µM (inactive) in test [20]; > 3.98 µM (inactive) in [21]; > 3.98 µM (inactive) in test [22]. In addition, the Ki in [23] was > 6.31 µM (inactive); in [24], > 6.31 µM (inactive); in test [25], > 3.98 µM (inactive); in [26], > 3.16 µM (inactive); in [27], 0.316 µM (active); in test [28] it was > 3.98 µM (inactive). Further, the inhibition constant (Ki) in test [29] is 398 nM (active) and 501 nM (active); in test [30] it was > 6.31 µM (inactive); in [31], 2.51 µM (active); in test [32], > 3.98 µM (inactive); in test [33] it was > 3.98 µM (inactive); in test [34] it was > 5.01 µM (inactive). The Ki in test [35] was > 3.98 µM (inactive); on Focal adhesion kinase 1 it was > 6.31 µM (inactive) and > 5.01 µM (inactive); in test [36], > 5.01 µM (inactive); in [37], > 3.98 µM (inactive); in [38] it was > 6.31 µM (inactive); in [39], > 3.98 µM (inactive). Besides, the Ki in test [40] was > 5.01 µM (inactive); in test [41], > 5.01 µM (inactive); in [42], > 7.94 µM (inactive); in test [43], 0.398 µM (active); in test [44], > 3.98 µM (inactive); in [45], > 3.98 µM (inactive). The Ki was > 6.31 µM (inactive) in [46] and > 3.98 µM (inactive) at Activated CDC42 kinase 1.

As to `Cc1cccc(CNc2cc(-c3c[nH]c4ncccc34)cc(Cl)n2)c1C`, the Ki was 0.0251 µM (active) in test [20]; 0.158 µM (active) in [47]; 0.501 µM (active) in [30]; 0.398 µM (active) in test [48]; 0.00398 µM (active) in [34]; 0.00501 µM (active) in test [49]. Also, the inhibitory constant (Ki) in [50] is 0.00126 µM (active); in test [51] it was > 10 µM (inactive).

Regarding `CCOc1c(F)cc(Oc2c(Cl)cnn(Cc3cccc4ccccc34)c2=O)cc1F`, the IC50 in test [52] is 2.37 µM (active); in [53], 9.19 µM (active).
